{"source": "patent US12582593B2", "about": "“Oral care compositions for gum health” (The Procter & Gamble Company, priority 2021, dated 2026)", "tested_on": "Primary Human Gingival Fibroblast (HGF)", "test": "In-vitro 2D tissue damage assay via Collagen-1 marker (Collagen-1 ELISA after TBHP challenge)", "format": "cell-based", "settings": "0.5% gel dilution 24 hr, 50 μM TBHP 1 hr, 24 hr in complete media; supernatant", "experimental": "In vitro gingival 2D gingival fibroblast tissue damage/prevention was used to assess the effects of treatment with Inventive Compositions and Comparative compositions on collagen-1 ELISA assay.\nThe obtained tissues were kept in cold Dulbecco's modified Eagle's medium (DMEM, Gibco) with 10% fetal bovine serum and a cocktail of antibiotics and antimycotics. Next, the tissues were minced with a blade and spun down at 4° C. and 200×g for 5-10 minutes to separate and wash the pellets. Resuspended tissue explants were laid onto a 60 mm dish and kept in an incubator. Every 3-5 days during culture, fibroblasts grown from tissue explants were washed and continued under passage using 0.2% trypsin. Proliferation tests and cell damage recovery experiments were performed when the fibroblasts reached passages 3-10.\nPrimary Human gingival fibroblast (HGF) cell was maintained in a 37° C. incubator with 5% CO2 saturation. Dulbecco's modified Eagle's medium (DMEM, Gibco) containing 10% fetal calf serum, 1% penicillin-streptomycin was used as the complete culture medium, which was changed every 2-3 days.\n1.8×10^5 Cells were seeded in a 6-well plate and cultured with complete medium in at 37° C. and 5% CO2 for 24 hr. […] The supernatant of cell culture was collected and analysed by Collagen-1 ELISA kit (CUSABIO).", "data": [{"substance": "TGF-B [Positive control (TGF-B)]", "values": [{"measurement": "Collagen-1", "value": 155.59, "unit": "ng/mL"}]}]}
